This passage reports ED50 and AD50 results from ChEMBL document CHEMBL1121788, “Structure-activity studies on narcotic antagonists. 2. N-substituted ethyl 3-(m- or p-hydroxyphenyl) nipecotates” (1981).

Some results are limits rather than exact numbers.

What all share (format): functional
The species named for test [1] is Mus musculus. Put plainly: Analgesic activity in mice by the tail-flick method.
Test [2] is filed under the species Mus musculus. Put plainly: Compound was tested for antagonist activity against morphine sulfate by the mouse tail-flick method. (Thermal pain tests record how soon the animal reacts.)
For test [3], the species on record is Mus musculus. Put plainly: Analgesic activity in mice by the acetic acid writhing assay.
Test [4] is filed under the species Mus musculus. Put plainly: Analgesic activity in mice by the tail-flick method, activity expressed as ED50.

The ED50 is the midpoint of the dose-response relation. A low value points to greater potency. For the compound `C=CCN1CC[C@]23c4c5ccc(O)c4O[C@H]2C(=O)CC[C@@]3(O)[C@H]1C5` [NALOXONE], the ED50 in test [1] was 0.08 µmol/kg.
In the case of `Br.CCOC(=O)C1(c2ccc(O)cc2)CCCN(C)C1` (configuration not stated), the AD50 in test [2] is >290 µM/kg. The ED50 is 22.9 µmol/kg in test [3] and > 290 µmol/kg in test [1].
The like results for `C=CCN1CCCC(C(=O)OCC)(c2cccc(O)c2)C1.O=P(O)(O)O` (configuration not stated) were, in that order, >92 µM/kg, 7.22 µmol/kg and > 229 µmol/kg.
For the compound `CN1CC[C@]23c4c5ccc(O)c4O[C@H]2[C@@H](O)C=C[C@H]3[C@H]1C5` [MORPHINE], the ED50 in test [3] was 0.72 µmol/kg; in test [1], 4.9 µmol/kg.
With `Br.CCOC(=O)C1(c2cccc(O)c2)CCCN(C)C1` (configuration not stated), in test [2], the AD50 was found to be 24.4 µM/kg. Moreover, the results for the ED50 in test [3] and in test [4] were 5.66 µmol/kg and > 290 µmol/kg, respectively.
For the compound `CCOC(=O)C1(c2ccc(O)cc2)CCCN(CC2CC2)C1.Cl` (configuration not stated), the AD50 in test [2] is >294 µM/kg. The figures for the ED50 in test [3] and in test [1] were 4.65 µmol/kg and 100 µmol/kg, respectively.
In test [2], `CCCN1CCCC(C(=O)OCC)(c2ccc(O)cc2)C1.Cl` (configuration not stated) came in with an AD50 of 140 µM/kg. For the same compound, the ED50 in test [3] was 62.5 µmol/kg; in test [1] it was > 305 µmol/kg.
In the case of `C=CCN1CCCC(C(=O)OCC)(c2ccc(O)cc2)C1.Cl` (configuration not stated), the AD50 in test [2] is >307 µM/kg. For the same compound, the values for the ED50 in test [3] and in test [1] were 10.4 µmol/kg and > 307 µmol/kg, respectively.
In test [2], `CCCN1CCCC(C(=O)OCC)(c2cccc(O)c2)C1.O=P(O)(O)O` (configuration not stated) had an AD50 of 59.3 µM/kg. Besides, the ED50 was 5.59 µmol/kg in test [3] and > 91 µmol/kg in test [1].
`Br.CCOC(=O)C1(c2cccc(O)c2)CCCN(CC2CC2)C1` (configuration not stated) displayed an AD50 in test [2] of 18.8 µM/kg. The ED50 in test [3] is 4 µmol/kg; in test [1] it was 68 µmol/kg.
